Earlier results in patent US12697345B2, “Microparticles containing stabilized CBD oil, and methods for the production thereof” (priority 2021, dated 2026).

Key:
[1] = 600 mg oral CBD, healthy male volunteers
[2] = estimated
[3] = aerosolized

## C=C(C)[C@@H]1CCC(C)=CC1c1c(O)cc(CCCCC)cc1O (stereo partly drawn) [CBD, 2-[(6R)-3-methyl-6-prop-1-en-2-ylcyclohex-2-en-1-yl]-5-pentylbenzene-1,3-diol]
[1]; 1 h
  mean±SD whole blood level of CBD at 1 hour: 0.36 (0.64) ng/mL
[1]; 2 h
  mean±SD whole blood level of CBD at 2 hours: 1.62 (2.98) ng/mL
[1]; 3 h
  mean±SD whole blood level of CBD at 3 hours: 3.4 (6.42) ng/mL
[2]
  Bioavailability from oral delivery: 6%
[3]
  Time to peak plasma concentrations: 5 to 10 min
